Measurements from PubChem BioAssay (NCI).
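All cell lines were grown in 96-well plates and treated with compound for 48 hours. Definition used: TGI = concentration required for complete inhibition of growth.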

Experiments:
Experiment in all cases: growth of human tumour cells (NCI), 48 h
786-0 renal = test system: 786-0 renal
A498 renal = test system: A498 renal
A549 NSCLC = test system: A549 NSCLC
ACHN renal = test system: ACHN renal
BT-549 breast = test system: BT-549 breast
CAKI-1 renal = test system: CAKI-1 renal
CCRF-CEM leukemia = test system: CCRF-CEM leukemia
COLO 205 colon = test system: COLO 205 colon
DU-145 prostate = test system: DU-145 prostate
EKVX NSCLC = test system: EKVX NSCLC
HCC-2998 colon = test system: HCC-2998 colon
HCT-116 colon = test system: HCT-116 colon
HCT-15 colon = test system: HCT-15 colon
HL-60(TB) leukemia = test system: HL-60(TB) leukemia
HOP-62 NSCLC = test system: HOP-62 NSCLC
HS 578T breast = test system: HS 578T breast
HT29 colon = test system: HT29 colon
IGROV1 ovarian = test system: IGROV1 ovarian
K-562 leukemia = test system: K-562 leukemia
KM12 colon = test system: KM12 colon
LOX IMVI melanoma = test system: LOX IMVI melanoma
M14 melanoma = test system: M14 melanoma
MALME-3M melanoma = test system: MALME-3M melanoma
MCF7 breast = test system: MCF7 breast
MDA-MB-231 breast = test system: MDA-MB-231 breast
MDA-MB-435 = test system: MDA-MB-435
MDA-N = test system: MDA-N
MOLT-4 leukemia = test system: MOLT-4 leukemia
NCI-H226 lung = test system: NCI-H226 lung
NCI-H23 lung = test system: NCI-H23 lung
NCI-H460 lung = test system: NCI-H460 lung
NCI-H522 lung = test system: NCI-H522 lung
NCI/ADR-RES ovarian = test system: NCI/ADR-RES ovarian
OVCAR-3 ovarian = test system: OVCAR-3 ovarian
OVCAR-4 ovarian = test system: OVCAR-4 ovarian
OVCAR-5 ovarian = test system: OVCAR-5 ovarian
OVCAR-8 ovarian = test system: OVCAR-8 ovarian
PC-3 prostate = test system: PC-3 prostate
RPMI-8226 leukemia = test system: RPMI-8226 leukemia
RXF 393 renal = test system: RXF 393 renal
SF-268 CNS = test system: SF-268 CNS
SF-295 CNS = test system: SF-295 CNS
SF-539 CNS = test system: SF-539 CNS
SK-MEL-2 melanoma = test system: SK-MEL-2 melanoma
SK-MEL-28 melanoma = test system: SK-MEL-28 melanoma
SK-MEL-5 melanoma = test system: SK-MEL-5 melanoma
SK-OV-3 ovarian = test system: SK-OV-3 ovarian
SN12C renal = test system: SN12C renal
SNB-19 CNS = test system: SNB-19 CNS
SNB-75 CNS = test system: SNB-75 CNS
SR leukemia = test system: SR leukemia
SW-620 colon = test system: SW-620 colon
T-47D breast = test system: T-47D breast
TK-10 renal = test system: TK-10 renal
U251 CNS = test system: U251 CNS
UACC-257 melanoma = test system: UACC-257 melanoma
UACC-62 melanoma = test system: UACC-62 melanoma
UO-31 renal = test system: UO-31 renal
HOP-92 NSCLC = test system: HOP-92 NSCLC

Measured: TGI

NC(N)=NNC(=O)C(=O)O
not listed: HOP-92 NSCLC
> 100 µM: all other assays above

CCOC(=O)/C=C(/C(=O)OCC)n1cc(C)c(=O)n(Cc2cnnn2CCCCOC(C)=O)c1=O
38.3 µM: IGROV1 ovarian
69.3 µM: NCI/ADR-RES ovarian
32.2 µM: OVCAR-3 ovarian
32.9 µM: SF-539 CNS
26.7 µM: TK-10 renal
56.7 µM: COLO 205 colon
46.2 µM: RPMI-8226 leukemia
41 µM: LOX IMVI melanoma
47.9 µM: MOLT-4 leukemia
71.1 µM: T-47D breast
49.3 µM: EKVX NSCLC
14.2 µM: NCI-H522 lung
20.2 µM: HOP-92 NSCLC
90.8 µM: NCI-H23 lung
39.8 µM: OVCAR-5 ovarian
36.6 µM: UO-31 renal
83.4 µM: SK-MEL-5 melanoma
32.5 µM: MCF7 breast
23.9 µM: ACHN renal
4.57 µM: CCRF-CEM leukemia
55.4 µM: OVCAR-8 ovarian
24.3 µM: BT-549 breast
34.3 µM: HT29 colon
78.4 µM: 786-0 renal
32.8 µM: HCT-116 colon
87.2 µM: MDA-MB-435
21.4 µM: CAKI-1 renal
57.7 µM: UACC-62 melanoma
71.5 µM: NCI-H460 lung
not listed: A498 renal | HCC-2998 colon | HL-60(TB) leukemia | M14 melanoma | MALME-3M melanoma | SR leukemia
> 100 µM: all other assays above

COC(=O)CC1C2CC3C(C2=O)C13 (stereo not drawn)
not listed: BT-549 breast | RPMI-8226 leukemia
> 100 µM: all other assays above
